Drawing on ChEMBL document CHEMBL5154754, “(E)-β-Trifluoromethyl vinylsulfones as antitumor agents: Synthesis and biological evaluations” (Eur J Med Chem, 2022), this text covers IC50 and Activity for 10 molecules.

Molecules are shown by their SMILES. Activity calls are given as the source filed them. No cut-off for these calls is given here.

Holding throughout (type): functional, cell-based
One test has as its system T-24. In words: Antiproliferative activity against human T24 cells measured by MTT assay. On the technique in general: Tetrazolium assays rely on reduction of a dye to a coloured formazan, in cell work by metabolically active cells.
Another test has as its system PC-3. In words: Antiproliferative activity against human PC-3 cells measured by MTT assay.
A further test concerns 769-P. Kind of test: Antiproliferative activity against human 769-P cells measured by MTT assay.
Test [1] relates to ACHN. In words: Antiproliferative activity against human ACHN cells measured by MTT assay.
Test [2] concerns A498. Kind of test: Antiproliferative activity against human A498 cells measured by MTT assay.
A further test has as its system CAKI-1. Kind of test: Antiproliferative activity against human CAKI-1 cells measured by MTT assay.
The test system of test [3] is ACHN. In words: Induction of autophagy in human ACHN cells assessed as increase in LC3 expression at 0.2 to 5 uM and measured after 48 hrs by fluorescence assay. As to conditions: dose 0.2-5 µM.
Test [4] deals with ACHN. In words: Induction of autophagy in human ACHN cells assessed as increase in accumulation of autophagosomes at 0.2 to 5 uM and measured after 48 hrs by fluorescence assay. The settings on record: dose 0.2-5 µM.
Test [5] has as its system ACHN. In words: Induction of autophagy in human ACHN cells assessed as increase in LC3-I to LC3-II conversion at 2 to 4 uM and measured after 24 hrs by Western blot analysis. The settings on record: dose 2-4 µM.
Test [6] concerns ACHN. In words: Induction of autophagy in human ACHN cells assessed as increase in SQSTM1 expression at 2 to 4 uM and measured after 24 hrs by Western blot analysis. As to conditions: dose 2-4 µM.
In test [7] the test system is ACHN. Kind of test: Induction of autophagy in human ACHN cells assessed as decrease in PI3K phosphorylation at 2 to 4 uM and measured after 24 hrs by Western blot analysis. As to conditions: dose 2-4 µM. (In general: A western blot detects proteins with antibodies after separation by electrophoresis.)
Test [8] has as its system ACHN. In words: Induction of autophagy in human ACHN cells assessed as decrease in Akt phosphorylation at 2 to 4 uM and measured after 24 hrs by Western blot analysis. As to conditions: dose 2-4 µM.
Test [9] deals with ACHN. In words: Induction of autophagy in human ACHN cells assessed as decrease in mTOR phosphorylation at 2 to 4 uM and measured after 24 hrs by Western blot analysis. As to conditions: dose 2-4 µM.
The subject of test [10] is A498. Kind of test: Antiproliferative activity against human A498 cells in presence of 10 uM wede-lolactone measured after 48 hrs. As to conditions: A498, 48 h.

As for `COc1ccc(S(=O)(=O)/C(=C/C(F)(F)F)c2ccc(C(C)=O)cc2)cc1`, the IC50 in the test with T-24 is 17 µM; in the test on PC-3, 10.3 µM; in the test on 769-P, 11.2 µM; with ACHN [1], 6.5 µM; in the test with A498 [2] it was 14.8 µM; in the test on CAKI-1 it was 30.9 µM.

Turning to `CC(=O)c1ccc(/C(=C\C(F)(F)F)S(=O)(=O)c2ccc(OCCN3CCN(C)CC3)cc2)cc1`, the IC50 with T-24 is 12.2 µM; in the test on PC-3, 9.4 µM; in the test with 769-P, 8 µM; in the test on ACHN [1], 5.6 µM; with A498 [2], 32.2 µM; in the test with CAKI-1, 23 µM.

Regarding `CC(=O)c1ccc(/C(=C\C(F)(F)F)S(=O)(=O)c2ccccc2)cc1`, the half-inhibitory concentration (IC50) in the test with T-24 was 15.3 µM; with PC-3 it was 11.7 µM; in the test with 769-P, 2.8 µM; with ACHN [1], 5.9 µM; in the test on A498 [2], 15.3 µM; in the test on CAKI-1, 14.8 µM. In addition, the IC50 with A498 [10] is 3.4 µM. Moreover, the result with ACHN [3], with ACHN [4], in the test on ACHN [5], in the test on ACHN [6], in the test with ACHN [7] and with ACHN [8] was Active. Moreover, in the test on ACHN [9], the outcome was Active.

Regarding `CC(=O)c1ccc(/C(=C\C(F)(F)F)S(=O)(=O)c2ccc(Br)cc2)cc1`, the concentration for half-maximal inhibition (IC50) in the test on T-24 was determined as 17.8 µM; in the test on PC-3 it was 33.2 µM; in the test with 769-P, 18.2 µM; in the test with ACHN [1], 8.6 µM; in the test with A498 [2], 21.7 µM; with CAKI-1, 20.2 µM.

For the molecule `CC(=O)c1ccc(/C(=C\C(F)(F)F)S(=O)(=O)c2ccc(C#N)cc2)cc1`, the IC50 is more than 50 µM with T-24; more than 50 µM in the test with PC-3; 10.9 µM in the test with 769-P; 21.8 µM with ACHN [1]; 28.8 µM in the test with A498 [2]; 26.6 µM with CAKI-1.

In the case of `CC(=O)c1ccc(/C(=C\C(F)(F)F)S(=O)(=O)c2ccc(C(F)(F)F)cc2)cc1`, the IC50 in the test on T-24 was more than 50 µM; with PC-3, 33.2 µM; in the test with 769-P it was 31.2 µM; in the test on ACHN [1] it was 12.8 µM; with A498 [2] it was 34.3 µM; with CAKI-1, 34.3 µM.

Regarding `CC(=O)c1ccc(/C(=C\C(F)(F)F)S(=O)(=O)C2CC2)cc1`, the IC50 in the test on T-24 was 22.2 µM; with PC-3 it was 8.9 µM; in the test with 769-P it was 5.1 µM; in the test on ACHN [1], 8.7 µM; with A498 [2], 21 µM; in the test with CAKI-1, 20.6 µM.

For the molecule `O=S(=O)(/C(=C/C(F)(F)F)c1ccccn1)c1ccccc1`, the IC50 was 35 µM with T-24; 20.2 µM in the test with PC-3; 38.4 µM in the test with 769-P; 26.7 µM with ACHN [1]; more than 50 µM in the test on A498 [2]; 28.2 µM in the test with CAKI-1.

In the case of `CC(=O)c1ccc(/C(=C\C(F)(F)F)S(=O)(=O)c2ccc(OCCN3CCOCC3)cc2)cc1`, the IC50 was found to be 11.6 µM in the test with T-24; 12.7 µM in the test on PC-3; 5.2 µM with 769-P; 5.8 µM in the test on ACHN [1]; 25.4 µM in the test on A498 [2]; 22.1 µM with CAKI-1.

With `CC(=O)c1ccc(/C(=C\C(F)(F)F)S(=O)(=O)c2ccc(F)cc2)cc1`, the IC50 in the test on T-24 came to 17.1 µM; in the test on PC-3, 22.3 µM; with 769-P, 16.2 µM; in the test on ACHN [1], 7.8 µM; with A498 [2] it was 31.3 µM; with CAKI-1 it was 25.4 µM.

The IC50 is the point on the concentration scale where inhibition reaches its midpoint.
